Source: ChEMBL document CHEMBL3885861, “Open TG-GATES”

Organism: Rattus norvegicus
Assay: Open TG-GATES - Regimen: Single
Type: toxicity, organism-based, Sprague-Dawley
Set-up: regimen Single, gender Male, age 6 weeks
Details: in vivo, po, 250 mg/kg, route gavage, dose level Middle; for APTT / Bas / Eos / Fbg / Hb / Ht / Lym / MCH / MCHC / MCV / Mono / Neu / PT / Plat / RBC / Ret / WBC: tissue Blood; for KIDNEY_L / KIDNEY_R / KIDNEY_TOTAL: tissue Kidney; for LIVER: tissue Liver; for A/G / ALP / ALT / AST / BUN / CRE / Ca / Cl / DBIL / GLC / IP / K / LDH / Na / PL / RALB / TBIL / TC / TG / TP / gamma-GTP: tissue Plasma

Compound `CN(C/C=C/C#CC(C)(C)C)Cc1cccc2ccccc12` [TERBINAFINE] has a TERMINAL_BW (3 h) of 225.8 g, an APTT (3 h) of 20 s and a Bas (3 h) of 0.6%. For the same compound, the Eos (3 h) was 0.8%, the Fbg (3 h) was 215.8 mg/dL and the Hb (3 h) was 13.2 g/dL. For the same compound, the Ht (3 h) was 39.2%, the Lym (3 h) was 79.4% and the MCH (3 h) was 21.8 pg. The MCHC (3 h) was 33.7%, the MCV (3 h) was 64.7 fL and the Mono (3 h) was 2.2%. It also gave a Neu (3 h) of 16.6%, a PT (3 h) of 12.2 s and a Plat (3 h) of 125.2 x10_4/uL. The RBC (3 h) was 606.8 x10_4/ul, the Ret (3 h) was 7.2% and the WBC (3 h) was 90.5 x10_2/uL. For the same compound, the KIDNEY_L (3 h) was 1 g, the KIDNEY_R (3 h) was 1 g and the KIDNEY_TOTAL (3 h) was 2 g. For the same compound, the LIVER (3 h) was 10.4 g, the A/G (3 h) was 1.7 and the ALP (3 h) was 909.4 IU/L. For the same compound, the ALT (3 h) was 42.4 IU/L, the AST (3 h) was 72.8 IU/L and the BUN (3 h) was 12 mg/dL. It also gave a CRE (3 h) of 0.4 mg/dL, a Ca (3 h) of 10.6 mg/dL and a Cl (3 h) of 103.6 meq/L. It also gave a DBIL (3 h) of 0.084 mg/dL, a GLC (3 h) of 213 mg/dL and an IP (3 h) of 9.1 mg/dL. It also gave a K (3 h) of 3.9 meq/L, an LDH (3 h) of 166.8 IU/L and a Na (3 h) of 141.4 meq/L. It also gave a PL (3 h) of 123.8 mg/dL, an RALB (3 h) of 3.4 g/dL and a TBIL (3 h) of 0.1 mg/dL. For the same compound, the TC (3 h) was 65 mg/dL, the TG (3 h) was 43.8 mg/dL and the TP (3 h) was 5.4 g/dL. For the same compound, the gamma-GTP (3 h) was 1 IU/L, the TERMINAL_BW (6 h) was 221.8 g and the APTT (6 h) was 18.1 s. It also gave a Bas (6 h) of 0.4%, an Eos (6 h) of 0.8% and a Fbg (6 h) of 220.6 mg/dL. For the same compound, the Hb (6 h) was 13.3 g/dL, the Ht (6 h) was 39.5% and the Lym (6 h) was 74%. The MCH (6 h) was 21.5 pg, the MCHC (6 h) was 33.7% and the MCV (6 h) was 64 fL. For the same compound, the Mono (6 h) was 2.4%, the Neu (6 h) was 22.2% and the PT (6 h) was 12.3 s. It also gave a Plat (6 h) of 110.3 x10_4/uL, an RBC (6 h) of 617.4 x10_4/ul and a Ret (6 h) of 6.8%. The WBC (6 h) was 90.7 x10_2/uL, the KIDNEY_L (6 h) was 1 g and the KIDNEY_R (6 h) was 1 g. It also gave a KIDNEY_TOTAL (6 h) of 2 g, an LIVER (6 h) of 9.6 g and an A/G (6 h) of 1.8. It also gave an ALP (6 h) of 842.8 IU/L, an ALT (6 h) of 36 IU/L and an AST (6 h) of 70.6 IU/L. The BUN (6 h) was 11.4 mg/dL, the CRE (6 h) was 0.4 mg/dL and the Ca (6 h) was 10.6 mg/dL. It also gave a Cl (6 h) of 102.8 meq/L, a DBIL (6 h) of 0.086 mg/dL and a GLC (6 h) of 204 mg/dL. The IP (6 h) was 9.7 mg/dL, the K (6 h) was 4 meq/L and the LDH (6 h) was 156 IU/L. It also gave a Na (6 h) of 141.4 meq/L, a PL (6 h) of 132.2 mg/dL and an RALB (6 h) of 3.5 g/dL. For the same compound, the TBIL (6 h) was 0.2 mg/dL, the TC (6 h) was 71.8 mg/dL and the TG (6 h) was 35.2 mg/dL. For the same compound, the TP (6 h) was 5.4 g/dL, the gamma-GTP (6 h) was 1 IU/L and the TERMINAL_BW (9 h) was 220.9 g. For the same compound, the APTT (9 h) was 18.2 s, the Bas (9 h) was 0.6% and the Eos (9 h) was 1%. It also gave a Fbg (9 h) of 211.6 mg/dL, a Hb (9 h) of 12.8 g/dL and a Ht (9 h) of 38.5%. It also gave a Lym (9 h) of 77.8%, an MCH (9 h) of 20.8 pg and an MCHC (9 h) of 33.3%. The MCV (9 h) was 62.3 fL, the Mono (9 h) was 2.4% and the Neu (9 h) was 18.2%. The PT (9 h) was 12.5 s, the Plat (9 h) was 114.8 x10_4/uL and the RBC (9 h) was 618 x10_4/ul. It also gave a Ret (9 h) of 6.3%, a WBC (9 h) of 74.3 x10_2/uL and a KIDNEY_L (9 h) of 1 g. It also gave a KIDNEY_R (9 h) of 1 g, a KIDNEY_TOTAL (9 h) of 2 g and an LIVER (9 h) of 9.1 g. It also gave an A/G (9 h) of 1.6, an ALP (9 h) of 845 IU/L and an ALT (9 h) of 31.4 IU/L. It also gave an AST (9 h) of 67.6 IU/L, a BUN (9 h) of 12 mg/dL and a CRE (9 h) of 0.4 mg/dL. For the same compound, the Ca (9 h) was 10.3 mg/dL, the Cl (9 h) was 103.4 meq/L and the DBIL (9 h) was 0.074 mg/dL. It also gave a GLC (9 h) of 198.2 mg/dL, an IP (9 h) of 10.8 mg/dL and a K (9 h) of 4.1 meq/L. The LDH (9 h) was 153 IU/L, the Na (9 h) was 141.8 meq/L and the PL (9 h) was 122 mg/dL. It also gave an RALB (9 h) of 3.4 g/dL, a TBIL (9 h) of 0.1 mg/dL and a TC (9 h) of 64 mg/dL. For the same compound, the TG (9 h) was 26.6 mg/dL, the TP (9 h) was 5.5 g/dL and the gamma-GTP (9 h) was 1.4 IU/L. The TERMINAL_BW (24 h) was 237.1 g, the APTT (24 h) was 18.5 s and the Bas (24 h) was 0.6%. The Eos (24 h) was 1%, the Fbg (24 h) was 223.8 mg/dL and the Hb (24 h) was 13.4 g/dL. The Ht (24 h) was 39.8%, the Lym (24 h) was 79.2% and the MCH (24 h) was 21.4 pg. The MCHC (24 h) was 33.8%, the MCV (24 h) was 63.3 fL and the Mono (24 h) was 3.2%. For the same compound, the Neu (24 h) was 15.6%, the PT (24 h) was 12 s and the Plat (24 h) was 127.3 x10_4/uL. The RBC (24 h) was 628.2 x10_4/ul, the Ret (24 h) was 6.6% and the WBC (24 h) was 91.5 x10_2/uL. The KIDNEY_L (24 h) was 1.1 g, the KIDNEY_R (24 h) was 1.1 g and the KIDNEY_TOTAL (24 h) was 2.2 g. For the same compound, the LIVER (24 h) was 11.9 g, the A/G (24 h) was 1.6 and the ALP (24 h) was 1068.6 IU/L. It also gave an ALT (24 h) of 46.4 IU/L, an AST (24 h) of 84.6 IU/L and a BUN (24 h) of 15.4 mg/dL. For the same compound, the CRE (24 h) was 0.4 mg/dL, the Ca (24 h) was 10.7 mg/dL and the Cl (24 h) was 103.2 meq/L. It also gave a DBIL (24 h) of 0.098 mg/dL, a GLC (24 h) of 191.2 mg/dL and an IP (24 h) of 8.6 mg/dL. The K (24 h) was 3.9 meq/L, the LDH (24 h) was 193.8 IU/L and the Na (24 h) was 141.4 meq/L. The PL (24 h) was 135 mg/dL, the RALB (24 h) was 3.4 g/dL and the TBIL (24 h) was 0.2 mg/dL. It also gave a TC (24 h) of 72.4 mg/dL, a TG (24 h) of 84 mg/dL and a TP (24 h) of 5.5 g/dL. For the same compound, the gamma-GTP (24 h) was 1.6 IU/L.
